In patent US10098340B2, “Method for preserving cells and cell cultures” (Rich Technologies Holding Company, LLC, priority 2011, dated 2018):

Assays:
[1] = system: Jurkat cells; assay: Caspase 3 activity (apoptosis) in Jurkat cells after storage under xenon pressure; assay type: cell-based; conditions: 4 Atm excessive pressure of gas comprising xenon, 24 hrs of storage, with and without doxorubicin
[2] = system: U-937 cells; assay: JC-1 staining of U-937 cells with flow cytometry (state of mitochondria, apoptosis) after storage under xenon; assay type: cell-based, human
Method: In order to obtain the data presented in these Examples, Leukemic monocyte lymphoma cells U-937 were grown in RPMI-1640 medium supplied with 15% fetal bovine serum and 10 mkg/ml gentamicin in the atmosphere of 5% CO2 at 37° C. Petri dishes containing the cell culture in exponential phase of growth were placed into a holding rack and transferred into containers having an inner volume of approximately 1.5 L which were designed for storage in hyperbaric conditions. The mixture of gases Xe—CO2 (95% and 5% respectively) was used for buildup of pressure of 0.5 to 4.0 Atm above ambient pressure over a period of 5-10 minutes, with particular parameters presented in connection with the Figures presented herein. The temperature was held from 22° C. to 37° C. in this embodiment of the invention Gases were mixed in a separate tank (or in the container/tube) based on calculation of their partial pressure. The container with Petri dishes was kept at this temperature and pressure for 2 hrs. Then the container was transferred to a refrigerator with decreased temperature (from 0.1° C. to +5° C.), while maintaining the pressure. The container was held at under these conditions for approximately 4 weeks. After that, the pressure was released and the container holding the cells was kept for 7 days in a household at a temperature of +4° C. to +10° C. and atmospheric pressure.
Accordingly, these cells respond to a large number of both extracellular and intracellular proapoptotic signals and have been used as model cells for analyzing apoptosis (Pimentel-Muiños F X, Seed B. Regulated commitment of TNF receptor signaling: a molecular switch for death or activation. Immunity. 1999 December; 11 (6):783-93; Karas M, Zaks T Z, Liu J L, LeRoith D. T cell receptor-induced activation and apoptosis in cycling human T cells occur throughout the cell cycle. Mol Biol Cell. 1999 December; 10 (12):4441-50; Valavanis C, Hu Y, Yang Y, Osborne B A, Chouaib S, Greene L, Ashwell J D, Schwartz L M. Model cell lines for the study of apoptosis in vitro. Methods Cell Biol. 2001; 66:417-36).

[3] = system: Jurkat cells; assay: Live Jurkat cell count (trypan blue) after transfer from storage to standard cultivation conditions; assay type: cell-based; conditions: 24 hrs under standard conditions (37° C., 5% CO2) after storage, Xe+37 doxo and Xe+4 doxo vs control, FIG. 3

Q: Which “development of spontaneous and induced (Doxo) apoptosis, caspase 3 activity” value ([1]; FIG. 4) does the source give for `[Xe]` [xenon] here?
A: The value was “prevented development of both spontaneous (series no Doxo in the diagram) and induced (series Doxo in the diagram) apoptosis”.

Q: And the “development of spontaneous and induced (Doxo) apoptosis, caspase 3 activity” value ([1]; FIG. 4, listed as Xenon)?
A: Its value is “prevented development of both spontaneous (no Doxo and non-treated) and induced (Doxo) apoptosis”.

Q: And the “development of spontaneous and induced (Doxo) apoptosis” value ([2]; 4 Atm over ambient pressure Xe, with and without doxorubicin, FIG. 5)?
A: The value was “prevented development of both spontaneous (no Doxo and non-treated) and induced (Doxo) apoptosis”.

Q: What about the “damage of mitochondria compared to control” value ([2]; JC-1, after 7 days of storage, control = no gas, 37° C.) of the same molecule?
A: The value was “significantly decreased damage of mitochondria”.

Q: What about the “percentage of doxorubicin-treated cells with undamaged mitochondria” value ([2]; JC-1, vs cells stored without xenon, after 24 hrs and 7 days of storage, FIG. 5) of the same molecule?
A: The value was “significantly higher”.

Q: What about the “action on cellular mitochondria” value ([2]; xenon both in combination with cooling and without cooling) of the same molecule?
A: The value was “exerted protective action on cellular mitochondria”.

Q: What about the “cell growth (number of live cells) after exposure to doxorubicin” value [3] of the same molecule?
A: The value was “improved cell growth after exposure to doxorubicin”.
